Series [1] has as its system Plasmodium falciparum. As to the kind of experiment: Antiplasmodial activity against chloroquine-resistant Plasmodium falciparum FCR3. The series is classed as functional, organism-based.
In series [2] the test system is Plasmodium falciparum. Kind of series: Antiplasmodial activity against chloroquine-sensitive Plasmodium falciparum D6. The series is classed as functional, organism-based.
The test system of series [3] is Plasmodium falciparum. As to the kind of experiment: Antiplasmodial activity against chloroquine-resistant Plasmodium falciparum Bre1. The format is functional, organism-based.
Series [4] has as its system Plasmodium falciparum. Kind of series: Antiplasmodial activity against chloroquine-sensitive Plasmodium falciparum 3D7. The series is classed as functional, organism-based.
Series [5] concerns Plasmodium falciparum. Kind of series: Antiplasmodial activity against chloroquine-resistant Plasmodium falciparum W2. The series is classed as functional, organism-based.
The subject of series [6] is Plasmodium falciparum. Kind of series: Antiplasmodial activity against chloroquine-sensitive Plasmodium falciparum IMT031. The format is functional, organism-based.
In another series the test system is L6. As to the kind of experiment: Toxicity against rat L6 cells assessed as induction of cell death at 100 uM. The series is classed as cell-based. The following applies: l6, 100 µM.

Where only a bound is given, the exact number is not on record here.

Broadly, the IC50 is the concentration needed to halve the response being measured. Low values mean greater potency in that assay, high ones weaker potency in that assay. For `CC[C@H](C)C(=O)O[C@H]1C[C@@H](C)C=C2C=C[C@H](C)[C@H](CC[C@@H](O)C[C@@H](O)CC(=O)O)[C@H]21`, the IC50 is 43.9 µM with Plasmodium falciparum [1]; 44.3 µM in the series with Plasmodium falciparum [2]; 52.6 µM in the series with Plasmodium falciparum [3] (Plasmodium falciparum, Bre1); 95.3 µM in the series on Plasmodium falciparum [4]; 103 µM in the series on Plasmodium falciparum [5] (Plasmodium falciparum, W2); 57.8 µM in the series with Plasmodium falciparum [6].
A word on the IC90: it is the point of the concentration-response curve where the effect stands at 90%. A higher IC90 goes with weaker potency. `CC(C)c1c(C(=O)Nc2ccccc2)c(-c2ccccc2)c(-c2ccc(F)cc2)n1CC[C@@H](O)C[C@@H](O)CC(=O)O` [ATORVASTATIN CALCIUM]: the IC50 in the series with Plasmodium falciparum [1] was 5.1 µM; with Plasmodium falciparum [2], 5.8 µM; with Plasmodium falciparum [3] (Plasmodium falciparum, Bre1), 5.8 µM; in the series with Plasmodium falciparum [4] it was 11.8 µM; with Plasmodium falciparum [5] (Plasmodium falciparum, W2), 4.8 µM; in the series with Plasmodium falciparum [6], 5.3 µM. For the same molecule, the IC90 in the series on Plasmodium falciparum [1] turned out to be 23.6 µM; with Plasmodium falciparum [2], 18.1 µM; with Plasmodium falciparum [3] (Plasmodium falciparum, Bre1), 24 µM; in the series with Plasmodium falciparum [4] it was 39 µM; in the series with Plasmodium falciparum [5] (Plasmodium falciparum, W2) it was 14.8 µM; with Plasmodium falciparum [6], 15.8 µM.
Take `CC[C@H](C)C(=O)O[C@H]1CCC=C2C=C[C@H](C)[C@H](CC[C@@H](O)C[C@@H](O)CC(=O)O)[C@H]21` [listing 1 of 2 here]: the figures for the IC50 in the series on Plasmodium falciparum [3] and with Plasmodium falciparum [5] were 102 µM and more than 200 µM, respectively.
For the molecule `CC(C)n1c(/C=C/C(O)CC(O)CC(=O)O)c(-c2ccc(F)cc2)c2ccccc21` (stereo not drawn) [FLUVASTATIN SODIUM], the IC50 with Plasmodium falciparum [1] came out at 116 µM; with Plasmodium falciparum [2] it was 92.3 µM; with Plasmodium falciparum [3] (Plasmodium falciparum, Bre1), 92.5 µM; with Plasmodium falciparum [4] it was 108 µM; in the series with Plasmodium falciparum [5] (Plasmodium falciparum, W2) it was 90.2 µM; with Plasmodium falciparum [6], 87.1 µM.
On to `CC[C@H](C)C(=O)O[C@H]1CCC=C2C=C[C@H](C)[C@H](CC[C@@H](O)C[C@@H](O)CC(=O)O)[C@H]21` [listing 2 of 2 here], for which the 50% inhibitory concentration (IC50) with Plasmodium falciparum [1] was more than 200 µM; with Plasmodium falciparum [2], more than 200 µM; in the series on Plasmodium falciparum [3] (Plasmodium falciparum, Bre1), more than 200 µM; with Plasmodium falciparum [4] it was more than 200 µM; in the series on Plasmodium falciparum [5], 88.5 µM; in the series on Plasmodium falciparum [6], more than 200 µM.
For `CC[C@H](C)C(=O)O[C@H]1C[C@@H](C)C=C2C=C[C@H](C)[C@H](CC[C@@H]3C[C@@H](O)CC(=O)O3)[C@H]21` [LOVASTATIN], the IC50 is more than 200 µM in the series with Plasmodium falciparum [1]; more than 200 µM with Plasmodium falciparum [2]; more than 200 µM in the series with Plasmodium falciparum [3] (Plasmodium falciparum, Bre1); more than 200 µM with Plasmodium falciparum [4]; more than 200 µM with Plasmodium falciparum [5] (Plasmodium falciparum, W2); more than 200 µM with Plasmodium falciparum [6].
For `CC(C)c1c(C(=O)Nc2ccccc2)c(-c2ccccc2)c(-c2ccc(F)cc2)n1CC[C@@H](O)C[C@@H](O)CC(=O)O` [ATORVASTATIN], in the series on L6, the Activity was found to be 27%.
In the case of `CCC(C)(C)C(=O)O[C@H]1C[C@@H](C)C=C2C=C[C@H](C)[C@H](CC[C@@H]3C[C@@H](O)CC(=O)O3)[C@H]21` [SIMVASTATIN], the IC50 with Plasmodium falciparum [1] is more than 200 µM; in the series with Plasmodium falciparum [2], more than 200 µM; in the series on Plasmodium falciparum [3] (Plasmodium falciparum, Bre1) it was more than 200 µM; in the series on Plasmodium falciparum [4], more than 200 µM; with Plasmodium falciparum [5] (Plasmodium falciparum, W2), more than 200 µM; in the series with Plasmodium falciparum [6] it was more than 200 µM.
Take `CC[C@H](C)C(=O)O[C@H]1CCC=C2C=C[C@H](C)[C@H](CC[C@@H]3C[C@@H](O)CC(=O)O3)[C@H]21` [MEVASTATIN]: the IC50 was more than 200 µM in the series on Plasmodium falciparum [1]; more than 200 µM in the series on Plasmodium falciparum [2]; more than 200 µM in the series on Plasmodium falciparum [3] (Plasmodium falciparum, Bre1); more than 200 µM in the series on Plasmodium falciparum [4]; more than 200 µM with Plasmodium falciparum [5] (Plasmodium falciparum, W2); more than 200 µM in the series on Plasmodium falciparum [6].
As to `CCC(C)(C)C(=O)O[C@H]1C[C@@H](C)C=C2C=C[C@H](C)[C@H](CC[C@@H](O)C[C@@H](O)CC(=O)O)[C@H]21`, the IC50 was 76.7 µM with Plasmodium falciparum [1]; 51.3 µM in the series on Plasmodium falciparum [2]; 48.4 µM with Plasmodium falciparum [3] (Plasmodium falciparum, Bre1); 69.8 µM in the series on Plasmodium falciparum [4]; 58.9 µM with Plasmodium falciparum [5] (Plasmodium falciparum, W2); 36.9 µM in the series with Plasmodium falciparum [6].
As for `CC[C@H](C)C(=O)O[C@H]1C[C@H](O)C=C2C=C[C@H](C)[C@H](CC[C@@H](O)C[C@@H](O)CC(=O)O)[C@H]21` [PRAVASTATIN SODIUM], the IC50 in the series on Plasmodium falciparum [1] was more than 200 µM; with Plasmodium falciparum [2] it was more than 200 µM; with Plasmodium falciparum [3] (Plasmodium falciparum, Bre1) it was more than 200 µM; in the series on Plasmodium falciparum [4], more than 200 µM; in the series with Plasmodium falciparum [5] (Plasmodium falciparum, W2), more than 200 µM; in the series on Plasmodium falciparum [6] it was more than 200 µM.

Values taken from ChEMBL document CHEMBL1157377, “Atorvastatin is 10-fold more active in vitro than other statins against Plasmodium falciparum” (Antimicrob Agents Chemother, 2007).
